Patent US10336732B2, “1-heterocyclyl isochromanyl compounds and analogs for treating CNS disorders” (Sunovion Pharmaceuticals Inc., priority 2015, dated 2019)

Biological target: T1, 5-HT2C (Homo sapiens, UniProt P28335)
T1 construct: expressed in transfected cells; host or cells: HEK-293 cells
T1 sequence (P28335 33-458): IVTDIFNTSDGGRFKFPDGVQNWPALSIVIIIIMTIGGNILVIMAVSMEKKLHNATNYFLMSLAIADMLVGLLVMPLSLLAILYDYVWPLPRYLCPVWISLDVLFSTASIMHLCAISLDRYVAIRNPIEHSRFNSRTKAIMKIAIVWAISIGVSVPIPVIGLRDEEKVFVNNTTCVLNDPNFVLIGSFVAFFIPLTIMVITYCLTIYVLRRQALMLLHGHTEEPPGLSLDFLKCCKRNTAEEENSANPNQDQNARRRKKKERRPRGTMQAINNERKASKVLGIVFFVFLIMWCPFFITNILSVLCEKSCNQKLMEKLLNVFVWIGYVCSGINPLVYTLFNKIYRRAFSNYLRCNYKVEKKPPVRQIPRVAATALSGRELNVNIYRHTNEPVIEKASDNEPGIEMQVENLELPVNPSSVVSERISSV
Assay: In vitro radioligand binding assay, 5-HT2C, [3H]mesulergine
Parameters: concentration or dose not given beside the values
Conditions: human recombinant (HEK-293 cells)
Experimental: Certain compounds were tested by in vitro binding assays using standard procedures. […] These receptors and assays are well known to those skilled in the art, as exemplified by the following: Abramovitz, M. et al. (2000), Biochem. Biophys. Acta., 1483: 285-293 (EP4, IP (PGI2)); Aharony, D. et al. (1993), Mol. Pharmacol., 44: 356-363 (NK2); Ardati, A. et al. (1997), Mol. Pharmacol., 51: 816-824 (NOP (ORL1)); Bignon, E. et al. (1999), J. Pharmacol. Exp. Ther. 289: 742-751 (CCK1 (CCKA)); Bloomquist, B. T. et al. (1998), Biochem. Biophys. Res. Commun., 243: 474-479 (GAL2); Brockhaus, M. et al. (1990), Proc. Natl. Acad. Sci. U.S.A., 87: 3127-3131 (TNF-α); Brown, G. B. (1986), J. Neurosci., 6: 2064-2070 (Na+ channel (site 2)); Buchan, K. W. et al. (1994), Brit. J. Pharmacol., 112: 1251-1257 (ETA); Cesura, A. M. et al. (1990), Mol. Pharmacol., 37: 358-366 (MAO-A); Choi, D. S. et al. (1994), FEBS Lett., 352: 393-399 (5-HT2B); Clark, A. F. et al. (1996), Invest. Ophtalmol. Vis. Sci., 37: 805-813 (GR); Couvineau, A. et al. (1985), Biochem. J., 231: 139-143 (VPAC1 (VIP1)); Dorje, F. et al. (1991), J. Pharmacol. Exp. Ther., 256: 727-733 (M1, M2, M3, M4); Ferry, G. et al. (2001), Eur. J. Pharmacol., 417: 77-89 (PPARγ); Fuchs, S. et al. (2001), Mol. Med., 7: 115-124 (ETB); Fuhlendorff, J. et al. (1990), Proc. Natl. Acad. Sci. U.S.A., 87: 182-186 (Y2); Ganapathy M E. et al. (1999), J. Pharmacol. Exp. Ther., 289: 251-260 (sigma (non-selective)); Gopalakrishnan, M. et al. (1996), J. Pharmacol. Exp. Ther., 276: 289-297 (N neuronal α4β2); Greengrass, P. and Bremner, R. (1979), Eur. J. Pharmacol., 55: 323-326 (α1 (non-selective)); Grandy, D. K. et al. (1989), Proc. Natl. Acad. Sci. U.S.A., 86: 9762-9766 (D25); Guard, S. et al. (1993), Eur. J. Pharmacol., 240:177-184 (BB (non-selective)); Heuillet, E. et al. (1993), J. Neurochem., 60: 868-876 (NK1, P2X); Hope, A. G. et al. (1996), Brit. J. Pharmacol., 118: 1237-1245 (5-HT3); Hoyer, D. et al. (1985), Eur. J. Pharmacol., 118: 1-12 (5-HT1B); Hugues, M. et al. (1982), J. Biol. Chem., 257: 2762-2769 (5-HT2A, SKCa channel); Joseph, S. S. et al. (2004), Naun.-Sch. Arch. Pharm., 369: 525-532 (β2); Le, M. T. et al. (2005), Eur. J. Pharmacol., 513: 35-45 (AT1); Le Fur, G. et al. (1983), Life Sci., 33: 449-457) (BZD (peripheral); Lee, Y. M. et al. (1993), J. Biol. Chem., 268: 8164-8169 (CCK2 (CCKB)); Leurs, R. et al. (1994), Brit. J. Pharmacol., 112: 847-854 (H2); Levin, M. C. et al. (2002), J. Biol. Chem., 277: 30429-30435 (11); Lewin, A. H. et al. (1989), Mol. Pharmacol., 35: 189-194 (Cl− channel (GABA-gated)); Lukas, R. J. (1986), J. Neurochem., 46: 1936-1941 (N muscle-type); Luthin, D. R. et al. (1995), Mol. Pharmacol., 47: 307-313; (A2A); Mackenzie, R. G. et al. (1994), Eur. J. Pharmacol., 266: 79-85 (D3); Mulheron, J. G. et al. (1994), J. Biol. Chem., 269: 12954-12962 (5-HT1A); Meng, F. et al. (1993), Proc. Natl. Acad. Sci. U.S.A., 90: 9954-9958 (κ (KOP)); Monsma, F. J. et al. (1993), Mol. Pharmacol., 43: 320-327 (5-HT6); Neote, K. et al. (1993), Cell, 72: 415-425 (CCR1); Pacholczyk, T. et al. (1991), Nature, 350: 350-354 (sst (non-selective, norepinephrine transporter)); Peralta, E. G. et al. (1987), Embo. J., 6: 3923-3929 (M3); Pristupa, Z. B. et al. (1994), Mol. Pharmacol., 45: 125-135 (dopamine transporter); Pruneau, D. et al. (1998), Brit. […]

Row | Structure (SMILES) | 5HT2c percent inhibition of specific binding [%]
1 | Fc1cccc2c1[C@H]([C@@H]1CCCN1)OCC2 [Compound I-1, (S)-2-((R)-8-fluoroisochroman-1-yl)pyrrolidine] | 63
2 | Fc1ccc2c(c1)CCO[C@H]2[C@@H]1CCCN1 [Compound I-9, (S)-2-((R)-6-fluoroisochroman-1-yl)pyrrolidine] | 61
3 | Clc1ccc2c(c1)[C@H]([C@@H]1CCCN1)OCC2 [Compound I-29, (S)-2-((R)-7-chloroisochroman-1-yl)pyrrolidine] | 67
4 | Fc1cccc2c1[C@H]([C@@H]1CCN1)OCC2 [Compound I-83, (S)-2-((R)-8-fluoroisochroman-1-yl)azetidine] | 64
5 | Fc1ccc2c(c1)CCO[C@H]2[C@@H]1CCN1 [Compound I-90, (S)-2-((R)-6-fluoroisochroman-1-yl)azetidine] | 59
